# Biological target: T1, human PTH1 receptor (Homo sapiens, UniProt Q03431)
# T1 sequence (Q03431 27-593): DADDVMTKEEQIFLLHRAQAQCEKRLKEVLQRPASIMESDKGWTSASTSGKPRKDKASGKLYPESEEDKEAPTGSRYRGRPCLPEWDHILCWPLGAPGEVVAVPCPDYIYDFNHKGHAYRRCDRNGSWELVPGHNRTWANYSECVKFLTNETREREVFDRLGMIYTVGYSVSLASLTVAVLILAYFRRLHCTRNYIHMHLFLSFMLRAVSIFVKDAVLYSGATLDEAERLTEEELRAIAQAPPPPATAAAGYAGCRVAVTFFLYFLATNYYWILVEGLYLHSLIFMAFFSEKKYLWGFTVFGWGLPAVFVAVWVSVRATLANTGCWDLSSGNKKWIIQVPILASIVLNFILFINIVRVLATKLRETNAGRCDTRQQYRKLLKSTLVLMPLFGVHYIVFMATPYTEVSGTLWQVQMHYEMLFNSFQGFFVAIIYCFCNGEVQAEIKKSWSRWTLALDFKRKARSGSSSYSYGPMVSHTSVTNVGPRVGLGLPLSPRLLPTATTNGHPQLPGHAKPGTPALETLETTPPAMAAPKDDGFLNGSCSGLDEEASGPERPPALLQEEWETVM
# Experiment: In vitro cAMP signal activity in HKRK-B7 cells (LLC-PK1 cells overexpressing the human PTH1 receptor)
# Assay type: cell-based
# Conditions: HKRK-B7 cells; compound at 1×10^−3 M; cAMP produced as percentage of that produced by hPTH(1-34) at 100 nM
row,cAMP production activity (%),Structure (SMILES)
1,104,"Cc1cc(N2C(=O)NC(C)C2=O)cc(C)c1/C=C/S(=O)(=O)N1CCC2(CC1)N=C(C1CCC(C)CC1)NC2=O (stereo not shown) [Compound 582, 3-(3,5-dimethyl-4-{(E)-2-[2-(4-methyl-cyclohexyl)-4-oxo-1,3,8-triaza-spiro[4.5]dec-1-ene-8-sulfonyl]-vinyl}-phenyl)-5-methyl-imidazolidine-2,4-dione]"
2,79,"CC(=O)N(CCOCCF)c1ccc(CCS(=O)(=O)N2CCC3(CC2)N=C(C2CCC(CCC(F)(F)F)CC2)NC3=O)c(C)c1 (stereo not shown) [Compound 757, N-[2-(2-fluoro-ethoxy)-ethyl]-N-[3-methyl-4-(2-{4-oxo-2-[4-(3,3,3-trifluoro-propyl)-cyclohexyl]-1,3,8-triaza-spiro[4.5]dec-1-ene-8-sulfonyl}-ethyl)-phenyl]-acetamide]"
3,54,"O=C1NC(C2CCCCC2)=NC12CCN(S(=O)(=O)C/C=C/c1cccc3c1ccn3C[C@H](O)CO)CC2 [Compound 253, 2-Cyclohexyl-8-{(E)-3-[1-((S)-2,3-dihydroxy-propyl)-1H-indol-4-yl]-prop-2-ene-1-sulfonyl}-1,3,8-triaza-spiro[4.5]dec-1-en-4-one]"
4,81,"COc1cc(N(C)C(N)=O)cc(C)c1CCS(=O)(=O)N1CCC2(CC1)N=C(C1CCC(C)CC1)NC2=O (stereo not shown) [Compound 682, 1-(3-Methoxy-5-methyl-4-{2-[2-(4-methyl-cyclohexyl)-4-oxo-1,3,8-triaza-spiro[4.5]dec-1-ene-8-sulfonyl]-ethyl}-phenyl)-1-methyl-urea]"
5,27,"CC1(C)OC[C@H](Cn2cc(F)c3c(/C=C/S(=O)(=O)N4CCC5(CC4)N=C(C4CCCCC4)NC5=O)cccc32)O1 [Compound 202, 2-cyclohexyl-8-{(E)-2-[1-((S)-2,2-dimethyl-[1,3]dioxolan-4-ylmethyl)-3-fluoro-1H-indol-4-yl]-ethenesulfonyl}-1,3,8-triaza-spiro[4.5]dec-1-en-4-one]"
6,14,"O=C(Cc1ccncc1)N1CCCC(C2=NC3(CCN(S(=O)(=O)CCc4cccc5ccccc45)CC3)C(=O)N2)C1 (stereo not shown) [Compound 438, 8-(2-naphthalen-1-yl-ethanesulfonyl)-2-[1-(2-pyridin-4-yl-acetyl)-piperidin-3-yl]-1,3,8-triaza-spiro[4.5]dec-1-en-4-one]"
7,26,"O=C1NC(C2CCCCC2)=NC12CCN(S(=O)(=O)CCCCCc1cccc3[nH]ccc13)CC2 [Compound 262, 2-cyclohexyl-8-[5-(1H-indol-4-yl)-pentane-1-sulfonyl]-1,3,8-triaza-spiro[4.5]dec-1-en-4-one]"
8,66,"CC(C)(C)COC(=O)N1CCCC(C2=NC3(CCN(S(=O)(=O)CCc4cccc5ccccc45)CC3)C(=O)N2)C1 (stereo not shown) [Compound 465, 3-[8-(2-naphthalen-1-yl-ethanesulfonyl)-4-oxo-1,3,8-triaza-spiro[4.5]dec-1-en-2-yl]-piperidine-1-carboxylic acid 2,2-dimethyl-propyl ester]"
9,89,"O=C1NC(C2CCCCC2)=NC12CCN(S(=O)(=O)CCc1cccc3c1ccn3C[C@H](O)[C@@H](O)CO)CC2 [Compound 1392, 2-Cyclohexyl-8-{2-[1-((2S,3S)-2,3,4-trihydroxy-butyl)-1H-indol-4-yl]-ethanesulfonyl}-1,3,8-triaza-spiro[4.5]dec-1-en-4-one]"
10,59,"CN(CCO)c1ccc(/C=C/S(=O)(=O)N2CCC3(CC2)N=C(C2CCCCC2)NC3=O)c(C(F)(F)F)c1 [Compound 501, 2-cyclohexyl-8-((E)-2-{4-[(2-hydroxy-ethyl)-methyl-amino]-2-trifluoromethyl-phenyl}-ethenesulfonyl)-1,3,8-triaza-spiro[4.5]dec-1-en-4-one]"
11,69,"Cc1cc(N2C(=O)CNC2=O)ccc1/C=C/S(=O)(=O)N1CCC2(CC1)N=C(C1CCC(C(C)C)CC1)NC2=O (stereo not shown) [Compound 563, 3-(4-{(E)-2-[2-(4-Isopropyl-cyclohexyl)-4-oxo-1,3,8-triaza-spiro[4.5]dec-1-ene-8-sulfonyl]-vinyl}-3-methyl-phenyl)-imidazolidine-2,4-dione]"
12,101,"Cc1cc(C(F)(F)F)ccc1C1=NC2(CCN(S(=O)(=O)/C=C/c3c(C)cc(C(=O)N4CCC(O)(CF)CC4)cc3C)CC2)C(=O)N1 [Compound 1259, 8-{(E)-2-[4-(4-fluoromethyl-4-hydroxy-piperidine-1-carbonyl)-2,6-dimethyl-phenyl]-ethenesulfonyl}-2-(2-methyl-4-trifluoromethyl-phenyl)-1,3,8-triaza-spiro[4.5]dec-1-en-4-one]"
13,116,"Cc1cc(N(C)C(N)=O)cc(C)c1/C=C/S(=O)(=O)N1CCC2(CC1)N=C(CCCCCCCCCCCO)NC2=O [Compound 1307, 1-(4-{(E)-2-[2-(11-hydroxy-undecyl)-4-oxo-1,3,8-triaza-spiro[4.5]dec-1-ene-8-sulfonyl]-vinyl}-3,5-dimethyl-phenyl)-1-methyl-urea]"
14,124,"Cc1cc(N(C)C(N)=O)cc(C)c1CC[S@TB3](=O)(=O)N1CCC2(CC1)N=C(c1cccc(CCC(C)C)c1)NC2=O [Compound 1144, 1-[3,5-dimethyl-4-(2-{2-[3-(3-methyl-butyl)-phenyl]-4-oxo-1,3,8-triaza-spiro[4.5]dec-1-ene-8-sulfonyl}-ethyl)-phenyl]-1-methyl-urea]"
15,4.3,"Cc1cc(OC[C@H](O)CO)cc(C)c1/C=C/S(=O)(=O)N1CCC2(CC1)N=C(c1ccc3c(c1)OC(F)(F)O3)NC2=O [Compound 1165, 2-(2,2-difluoro-benzo[1,3]dioxol-5-yl)-8-{(E)-2-[4-((R)-2,3-dihydroxy-propoxy)-2,6-dimethyl-phenyl]-ethenesulfonyl}-1,3,8-triaza-spiro[4.5]dec-1-en-4-one]"
16,48,"Cc1cc(CN)cc(C)c1/C=C/S(=O)(=O)N1CCC2(CC1)N=C(C1CCC(C)CC1)NC2=O (stereo not shown) [Compound 1291, 8-[(E)-2-(4-aminomethyl-2,6-dimethyl-phenyl)-ethenesulfonyl]-2-(4-methyl-cyclohexyl)-1,3,8-triaza-spiro[4.5]dec-1-en-4-one]"
17,105,"Cc1cc(N(C)C(N)=O)cc(C)c1CCS(=O)(=O)N1CCC2(CC1)N=C(C(F)CCCCCCCC(F)(F)F)NC2=O (stereo not shown) [Compound 1151, 1-(3,5-Dimethyl-4-{2-[4-oxo-2-(1,9,9,9-tetrafluoro-nonyl)-1,3,8-triaza-spiro[4.5]dec-1-ene-8-sulfonyl]-ethyl}-phenyl)-1-methyl-urea]"
18,55,"Cc1cc(NCC(=O)N2CCN(C)CC2)ccc1/C=C/S(=O)(=O)N1CCC2(CC1)N=C(c1cccc(OC(F)(F)F)c1)NC2=O [Compound 528, 8-((E)-2-{2-methyl-4-[2-(4-methyl-piperazin-1-yl)-2-oxo-ethylamino]-phenyl}-ethenesulfonyl)-2-(3-trifluoromethoxy-phenyl)-1,3,8-triaza-spiro[4.5]dec-1-en-4-one]"
19,2.5,"NCC(=O)N1CCCC(C2=NC3(CCN(S(=O)(=O)c4cccc(Cl)c4)CC3)C(=O)N2)C1 (stereo not shown) [Compound 442, 2-[1-(2-Amino-acetyl)-piperidin-3-yl]-8-(3-chloro-benzenesulfonyl)-1,3,8-triaza-spiro[4.5]dec-1-en-4-one]"
20,36,"Cc1cc(N2CCC2=O)ccc1/C=C/S(=O)(=O)N1CCC2(CC1)N=C(C1CCCCC1)NC2=O [Compound 572, 2-cyclohexyl-8-{(E)-2-[2-methyl-4-(2-oxo-azetidin-1-yl)-phenyl]-ethenesulfonyl}-1,3,8-triaza-spiro[4.5]dec-1-en-4-one]"
21,87,"Cc1cc(N(C)C(=O)OCCO)cc(C)c1/C=C/S(=O)(=O)N1CCC2(CC1)N=C(c1cccc(OC(F)(F)F)c1)NC2=O [Compound 1012, (3,5-Dimethyl-4-{(E)-2-[4-oxo-2-(3-trifluoromethoxy-phenyl)-1,3,8-triaza-spiro[4.5]dec-1-ene-8-sulfonyl]-vinyl}-phenyl)-methyl-carbamic acid 2-hydroxy-ethyl ester]"
22,70,"O=C1NC(C2CCCCC2)=NC12CCN(S(=O)(=O)/C=C/c1cccc3[nH]c(=O)oc13)CC2 [Compound 188, 2-cyclohexyl-8-[(E)-2-(2-oxo-2,3-dihydro-benzoxazol-7-yl)-ethenesulfonyl]-1,3,8-triaza-spiro[4.5]dec-1-en-4-one]"
23,37,"O=C1NC(C2CCCCC2)=NC12CCN(S(=O)(=O)/C=C/c1cccc(F)c1F)CC2 [Compound 184, 2-cyclohexyl-8-[(E)-2-(2,3-difluoro-phenyl)-ethenesulfonyl]-1,3,8-triaza-spiro[4.5]dec-1-en-4-one]"
24,145,"CCCCCCCCCC1=NC2(CCN(S(=O)(=O)CCc3ccc(C(=O)N4CC[C@@H](O)C4)cc3C)CC2)C(=O)N1 [Compound 979, 8-{2-[4-((R)-3-hydroxy-pyrrolidine-1-carbonyl)-2-methyl-phenyl]-ethanesulfonyl}-2-nonyl-1,3,8-triaza-spiro[4.5]dec-1-en-4-one]"
25,117,"Cc1cc(C(=O)N2CC(O)C2)cc(C)c1/C=C/S(=O)(=O)N1CCC2(CC1)N=C(c1cccc(OC(F)(F)F)c1)NC2=O [Compound 408, 8-{(E)-2-[4-(3-hydroxy-azetidine-1-carbonyl)-2,6-dimethyl-phenyl]-ethenesulfonyl}-2-(3-trifluoromethoxy-phenyl)-1,3,8-triaza-spiro[4.5]dec-1-en-4-one]"

# From patent publication US9169254B2, “Spiroimidazolone derivative” (Chugai Seiyaku Kabushiki Kaisha, priority 2009, dated 2015)
